Measurements reported in the supplement of paper PMC10307832.

Assays:
Assay in all cases: relative viability (nuclei count vs DMSO), 5 days (fraction); higher = more cells survive
[1] = compound: CCN(CCO)CCCC(C)Nc1ccnc2cc(Cl)ccc12 [Hydroxychloroquine] + CC1(C)CCC(c2ccc(Cl)cc2)=C(CN2CCN(c3ccc(C(=O)NS(=O)(=O)c4ccc(N[C@H](CCN5CCOCC5)CSc5ccccc5)c(S(=O)(=O)C(F)(F)F)c4)cc3)CC2)C1 [Navitoclax] (partner 0.5 µM)
How it was run: (§1)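 For relative viability, nuclei counts in treated wells were divided by those in vehicle wells. Lung cancer cell lines had been pin-tool dosed in 1536-well plates the day after seeding and cultured for 5 days, then fixed and stained in one step (final 0.05% Triton X-100, 1% formaldehyde, 1 ug/ml Hoechst) and imaged at 4×. Doses were one drug alone or a fixed anchor-drug dose plus five library-drug doses (not always all listed) in √10 steps, and values are duplicate-plate medians.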

[2] = compound: CCN(CCO)CCCC(C)Nc1ccnc2cc(Cl)ccc12 [Hydroxychloroquine] + CCNC(=O)c1noc(-c2cc(C(C)C)c(O)cc2O)c1-c1ccc(CN2CCOCC2)cc1 [Luminespib] (partner 0.01 µM)
How it was run: as §1

[3] = compound: CCN(CCO)CCCC(C)Nc1ccnc2cc(Cl)ccc12 [Hydroxychloroquine] + COc1cc2c(Oc3ccc(NC(=O)C4(C(=O)Nc5ccc(F)cc5)CC4)cc3F)ccnc2cc1OCCCN1CCOCC1 [Foretinib] (partner 0.25 µM)
How it was run: as §1

[4] = compound: CCN(CCO)CCCC(C)Nc1ccnc2cc(Cl)ccc12 [Hydroxychloroquine] + C[C@]1(O)C[C@@H](c2nc(-c3ccc4ccc(-c5ccccc5)nc4c3)c3c(N)nccn32)C1 [Linsitinib] (partner 1 µM)
How it was run: as §1

| Cell Line | relative viability ([1]; first compound 0.5 µM) | relative viability ([1]; first compound 1.581 µM) | relative viability ([1]; first compound 5 µM) | relative viability ([1]; first compound 15.81 µM) | relative viability ([1]; first compound 50 µM) | relative viability ([2]; first compound 0.5 µM) | relative viability ([2]; first compound 1.581 µM) | relative viability ([2]; first compound 5 µM) | relative viability ([2]; first compound 15.81 µM) | relative viability ([2]; first compound 50 µM) | relative viability ([3]; first compound 0.5 µM) | relative viability ([3]; first compound 1.581 µM) | relative viability ([3]; first compound 5 µM) | relative viability ([3]; first compound 15.81 µM) | relative viability ([3]; first compound 50 µM) | relative viability ([4]; first compound 0.5 µM) | relative viability ([4]; first compound 1.581 µM) | relative viability ([4]; first compound 5 µM) | relative viability ([4]; first compound 15.81 µM) | relative viability ([4]; first compound 50 µM) |
| --- | --- | --- | --- | --- | --- | --- | --- | --- | --- | --- | --- | --- | --- | --- | --- | --- | --- | --- | --- | --- |
| PC-3 [JPC-3] | 0.851 | 0.776 | 0.83 | 0.67 | 0.85 | 0.762 | 0.711 | 0.745 | 0.686 | 0.774 | 1.07 | 1.14 | 0.99 | 1.02 | 1.07 | 0.983 | 0.948 | 0.923 | 1.01 | 0.979 |
| PC-14 | 1.03 | 1.07 | 0.979 | 1.01 | 0.962 | 0.17 | 0.151 | 0.17 | 0.173 | 0.154 | 0.909 | 0.987 | 1.01 | 0.972 | 0.962 | 0.889 | 1.07 | 0.995 | 1.03 | 0.97 |
| RERF-LC-KJ | 0.894 | 0.983 | 0.93 | 0.934 | 0.749 | 1.08 | 1.22 | 1.31 | 1.14 | 1.1 | 0.757 | 0.825 | 0.872 | 0.918 | 0.941 | 0.896 | 0.885 | 0.911 | 0.854 | 0.822 |
| SK-LU-1 | 0.747 | 0.96 | 0.851 | 1.21 | 0.658 | 0.21 | 0.209 | 0.21 | 0.205 | 0.187 | 0.849 | 0.769 | 0.834 | 0.787 | 0.926 | 1.11 | 1.09 | 1.04 | 1.19 | 0.982 |
| SK-MES-1 | 1.45 | 1.21 | 1.25 | 1.27 | 1.17 | 0.725 | 0.818 | 0.778 | 0.84 | 0.661 | 0.883 | 0.822 | 1.04 | 0.901 | 0.792 | 1.1 | 1.09 | 1.12 | 1.16 | 1.03 |
| SW 1573 | 0.971 | 0.884 | 1.01 | 1.03 | 0.972 | 0.399 | 0.153 | 0.203 | 0.174 | 0.193 | 1.06 | 0.774 | 1.08 | 0.686 | 0.871 | 0.698 | 0.625 | 0.67 | 0.74 | 0.674 |
| UMC-11 | 0.307 | 0.288 | 0.299 | 0.322 | 0.327 |  | 1.01 | 1.05 | 1.1 | 1.04 |  | 0.978 | 1.12 | 1.04 | 1.19 | 0.928 | 1.02 | 0.986 | 1.1 | 1.22 |
